Reference: patent US20040225128A1 (priority 2001, published 2004)
Counter-ions that a name gives are not always drawn. Like-named read-outs stand apart in the source and are kept apart here.

Columns and labels:
[1] = as described in European Patent 0223403B; cited from earlier work
[2] = as described in European Patent 0223403B; cited from earlier work; remark: listed apart in the source
[3] = Hygroscopicity; format: physicochemical

SMILES	Hygroscopicity (in words) [1]	Stability (in words) [2]	Hygroscopicity (in words) [3]
Fc1ccc([C@@H]2CCNC[C@H]2COc2ccc3c(c2)OCO3)cc1 [Example 9, paroxetine hydrochloride hemi hydrate]	non-hygroscopic	stable	
Fc1ccc([C@@H]2CCNC[C@H]2COc2ccc3c(c2)OCO3)cc1 [Example 3, paroxetine isethionate]			practically no adverse hygroscopicity characteristics
